{"source": "patent US10654880B2", "about": "“Methods for preparation of glycosphingolipids and uses thereof” (priority 2011, dated 2020)", "origin": "cited, not measured here", "tested_on": "breast cancer tumors (4T1 cell line)", "details": "breast cancer-bearing mice (4T1), relative to untreated group"}
{"smiles": "CCCCCCCCCCCCCCCCCCCCCCCCCC(=O)N[C@@H](CO[C@H]1O[C@H](CO)[C@H](O)[C@H](O)[C@H]1O)[C@H](O)[C@H](O)CCCCCCCCCCCCCC", "note": "[α-GalCer, alpha-galactosylceramide]", "values": [{"measurement": "inhibition of tumor growth rate", "result": 50, "unit": "%"}]}
